According to PubChem BioAssay AID463203 (Broad Institute, 2010):
Activity calls are given as the source filed them.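 The calls were made as follows: active = more than half of replicate measurements showing over 20% loss of kinase signal relative to plate controls; inconclusive = some but at most half of replicates over 20% loss; inactive = no replicate over 20% signal loss.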

Target: Glycogen synthase kinase-3 alpha (Homo sapiens) (UniProt P49840)
Test: concentration-response blocking of human GSK3A – biochemical, luminescence, cell-free homogeneous, retest, dose response (AID 463203)
Conditions: GSK-3 alpha enzyme, ADP-Glo luminescence, 60 min

Chain of Glycogen synthase kinase-3 alpha (Homo sapiens) (P49840 whole entry, looked up): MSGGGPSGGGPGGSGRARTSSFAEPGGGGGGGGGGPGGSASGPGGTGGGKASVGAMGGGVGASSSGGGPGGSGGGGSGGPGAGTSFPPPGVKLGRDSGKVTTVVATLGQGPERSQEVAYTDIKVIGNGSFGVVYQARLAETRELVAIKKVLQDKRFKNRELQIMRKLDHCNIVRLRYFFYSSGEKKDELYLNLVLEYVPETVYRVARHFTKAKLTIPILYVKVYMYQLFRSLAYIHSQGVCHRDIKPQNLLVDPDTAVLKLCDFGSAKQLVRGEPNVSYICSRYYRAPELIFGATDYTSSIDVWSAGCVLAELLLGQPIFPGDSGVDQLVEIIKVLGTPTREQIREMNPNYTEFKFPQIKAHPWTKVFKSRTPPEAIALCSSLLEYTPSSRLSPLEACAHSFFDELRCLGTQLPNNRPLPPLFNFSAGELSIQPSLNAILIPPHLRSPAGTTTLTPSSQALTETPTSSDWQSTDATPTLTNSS

Compound | AC50
CCOC(=O)c1cnn(Cc2ccccc2Cl)c1N | > 30 µM (inactive)
CCN1CCN(c2nc(N(C)c3ccccc3)nc(N)c2[N+](=O)[O-])CC1 | > 30 µM (inactive)
COc1ccc2c(c1)C(SCC(=O)NCc1ccccc1)CC(C)(C)O2 (stereo not given) | > 30 µM (inactive)
COc1ccccc1NC(=O)CSc1nnc(-c2ccncc2)o1 | > 30 µM (inactive)
COc1ccc(-n2c(C)c([N+](=O)[O-])c3ccc(O)c(CN(C)C)c32)cc1 | 5.94 µM
CC(C)c1[nH]nc2c1C(c1ccco1)C(C#N)=C(N)O2 (stereo not given) | > 30 µM (inactive)
CN(Cc1c(C(=O)N/N=C/c2ccc(F)cc2)nnn1-c1nonc1N)C1CCCCC1 | > 30 µM (inactive)
O=c1cc(-c2ccccc2)[nH]n1-c1ccc([N+](=O)[O-])cc1 | > 30 µM (inactive)
O=C(Nc1ccccc1N1CCN(C(=O)c2ccccc2)CC1)c1ccc(Br)o1 | 3.51 µM
COC(=O)[C@@H]1[C@H](CCc2ccccc2)NC(=O)N(Cc2ccccc2)[C@@H]1C | > 30 µM (inactive)
COc1ccc2nc(SCC(=O)Nc3nccs3)[nH]c2c1 | 7.82 µM
Cc1cc(=O)[nH]c2ccccc12 | > 30 µM (inactive)
CC1=Nn2c(nc3sc4c(c3c2=O)CCCC4)SC1 | > 30 µM (inactive)
Nc1nc(N)nc(-c2cc(O)ccc2O)n1 | 11.8 µM
O=C(c1ccc2c3n(nc2c1)-c1ccccc1CO3)N1CCCCC1 | 26.4 µM
COc1cc(C(=O)Oc2cc(C)cc(C)c2)cc(OC)c1OC | > 30 µM (inactive)
COc1ccc(NC(=O)CN(C)S(=O)(=O)c2cnc[nH]2)cc1 | > 30 µM (inactive)
COc1cc(C2CC(=O)N3CN(Cc4ccccc4)CSC3=C2C#N)ccc1OCc1ccccc1 (stereo not given) | > 30 µM (inactive)
Fc1cccc(/C=N/Nc2ccccn2)c1 | > 30 µM (inactive)
CC(C)NC(=O)Nc1ccc(Br)cc1Cl | > 30 µM (inactive)
O=C(CCSc1nc(-c2ccc3c(c2)OCO3)cc(C(F)(F)F)n1)NCc1ccco1 | > 30 µM (inactive)
COc1ccccc1-c1noc(CSc2nc(C)cc(=O)[nH]2)n1 | > 30 µM (inactive)
Cc1ccc(N(CC(O)CN2CCCCC2)S(=O)(=O)c2ccc(C)cc2)cc1 (stereo not given) | > 30 µM (inactive)
Oc1cc(O)cc(-c2cc3ccc(O)cc3o2)c1 | > 30 µM (inactive)
CCCOc1cc2c(C#N)c(N3CCCC3)nc(N)c2c(N)n1 | > 30 µM (inactive)
Brc1ccccc1/C=N/Nc1ccc2ccccc2n1 | > 30 µM (inactive)
Cc1ccc(S(=O)(=O)N2CCN(C(=O)n3ccnc3)CC2)cc1 | > 30 µM (inactive)

Compound | AC50
COc1ccc(S(=O)(=O)Nc2ccc(S(=O)(=O)Nc3nc(C)cc(C)n3)cc2)cc1OC | > 30 µM (inactive)
Brc1cccc(CSc2nnc(-c3ccncc3)o2)c1 | 7.58 µM
NS(=O)(=O)c1ccc(Nc2nc(-c3cccnc3)cs2)cc1 | > 30 µM (inactive)
Fc1ccc(/C=N/Nc2nc3ccccc3[nH]2)cc1F | > 30 µM (inactive)
CCN1C(=O)c2ccc(C(=O)NCc3ccc4c(c3)OCO4)cc2C1=O | > 30 µM (inactive)
CNC(=O)CSc1nnc(-c2ccco2)n1-c1ccccc1OC | > 30 µM (inactive)
COc1ccc(-c2cc(C(=O)N3CCN(c4ccccc4)CC3)no2)cc1 | > 30 µM (inactive)
O=C(COC(=O)c1ccc(F)cc1F)Nc1ccc(Cl)cn1 | > 30 µM (inactive)
COc1ccc(-c2nsc3c(N4CCCCC4C)ncnc23)cc1 (stereo not given) | > 30 µM (inactive)
S=C(Nc1ccc(Nc2ccccc2)cc1)Nc1ccccn1 | > 30 µM (inactive)
CCc1ccc(NC(=S)NC(=O)CC(C)C)cc1 | > 30 µM (inactive)
O=C(NCCc1csc(-c2ccccc2)n1)c1ccc(Br)o1 | 17.4 µM
Cc1cccc(-n2ncc(C#N)c2-n2cccc2)c1 | > 30 µM (inactive)
O=C(Nc1ncc([N+](=O)[O-])s1)C1CC(=O)N(c2ccc(F)cc2)C1 (stereo not given) | 12.4 µM
COc1cccc(NC(=O)c2nnn(Cc3ccc(Br)cc3F)c2N)c1 | 11.1 µM
CC(C)c1ccc(NC(=O)CSc2n[nH]c(=O)n2-c2ccc3c(c2)OCCO3)cc1 | > 30 µM (inactive)
C[C@@H]1O[C@@H](Oc2c(-c3ccc(O)c(O)c3)oc3cc(O)cc(O)c3c2=O)[C@H](O)[C@H](O)[C@H]1O | 29.8 µM
CC1(C)Cc2cccc(C(=O)NCc3ccco3)c2O1 | > 30 µM (inactive)
COc1ccc([C@H]2[C@H](C(=O)C(C)(C)C)N3N=Cc4ccccc4C3[C@]23N=C(c2ccccc2)OC3=O)cc1OC (stereo not given in full) | > 30 µM (inactive)
CN(C)CCCNc1oc(-c2ccccc2)nc1C#N | > 30 µM (inactive)
CC(C)=CCc1c(O)cc(O)c2c(=O)c(O[C@@H]3O[C@@H](C)[C@H](O)[C@@H](O)[C@H]3O)c(-c3ccc(O)cc3)oc12 | 19.6 µM
CC(C)N=C(NC#N)SCc1ccc(F)cc1 | > 30 µM (inactive)
CNc1cc(N2CCCC2)ccc1[N+](=O)[O-] | > 30 µM (inactive)
Cc1cc(O)c2c(-c3ccccc3)cc(=O)oc2c1 | > 30 µM (inactive)
Cc1nc(SCC(=O)Nc2ccccc2C(F)(F)F)c(C#N)c(C)c1CC(=O)c1ccc(Br)cc1 | > 30 µM (inactive)
COC(=O)[C@H](C)NC(=O)NCc1ccccc1F | > 30 µM (inactive)
CCn1c(SCC(=O)Nc2nc3ccc(OC)cc3s2)nnc1-c1ccoc1C | 5.81 µM

Compound | AC50
COc1cc(OC)cc(C2C(C#N)=C(N)Oc3n[nH]c(-c4cccnc4)c32)c1 (stereo not given) | > 30 µM (inactive)
O=C(c1coc2ccc(O)c(CN3CCOCC3)c12)C1CC1 | 22.8 µM
CCOc1ccc2ncc(S(=O)(=O)c3ccccc3)c(N3CCN(c4ccccc4)CC3)c2c1 | > 30 µM (inactive)
Cc1noc(C)c1COc1ccc(C(=O)OCC(=O)Nc2c(C)n(C)n(-c3ccccc3)c2=O)cc1 | > 30 µM (inactive)
O=C(Nc1ccccc1-c1nnc(SCc2ccc(Cl)cc2)o1)c1ccccc1 | > 30 µM (inactive)
Cc1nnc(NC(=O)Oc2ccccc2)s1 | > 30 µM (inactive)
COc1ccc(CC(=O)Oc2ccc(C)cc2C)cc1 | > 30 µM (inactive)
Cc1ccc(N2CC(C(=O)Nc3ncc([N+](=O)[O-])s3)CC2=O)cc1 (stereo not given) | 11.4 µM
COc1ccc(CNc2cc(NCCCO)c([N+](=O)[O-])c3nonc23)cc1 | 13.3 µM
Nc1c(S(=O)(=O)c2ccccc2)nnn1-c1ccccc1 | > 30 µM (inactive)
COc1ccc(-c2cc(=O)oc3cc(O)ccc23)cc1 | 19.5 µM
O=C(O)COc1ccccc1/C=N/NC(=O)CSc1nnc(SCc2ccccc2)s1 | > 30 µM (inactive)
COc1ccc(Nc2nc(N)nc(COc3ccc(OC)cc3)n2)cc1 | > 30 µM (inactive)
CC(C)c1ccc(C2CC(=O)N3CN(Cc4ccco4)CSC3=C2C#N)cc1 (stereo not given) | 21 µM
N#C/C(=N\Nc1ccc(Cl)cc1)C(N)=S | > 30 µM (inactive)
CC(=NCCO)c1c(O)n(C2CCCCC2)c(=O)[nH]c1=O | 26.9 µM
Nc1nc(N)nc(-c2cc(F)ccc2O)n1 | 18.9 µM
Nc1nc(Nc2cccc(F)c2)nc(NCc2ccco2)c1[N+](=O)[O-] | 4.08 µM
COc1cc(NC(=O)c2cc([N+](=O)[O-])ccc2NC(=O)CNC2CCCCC2)cc(OC)c1 | > 30 µM (inactive)
Cc1ccc(/C=C2\C(=O)Nc3ccccc32)o1 | 31.4 µM
CCOC(=O)CSc1nc(C)[nH]c1[N+](=O)[O-] | > 30 µM (inactive)
NC(=O)c1c(NC(=O)C(=O)N2CCOCC2)sc2c1CCC2 | > 30 µM (inactive)
CCC(C)Nc1nc(N)c([N+](=O)[O-])c(N2CCCCCC2)n1 (stereo not given) | 10.9 µM
CC1(C)Cc2c(sc3nn[nH]c(=O)c23)CO1 | > 30 µM (inactive)
O=C(COc1ccccc1Br)NC1CC1 | > 30 µM (inactive)
CCOc1cc(/C=C2\SC(N3CCCCC3)=NC2=O)ccc1O | > 30 µM (inactive)
COc1ccc(-c2ncncc2-c2ccccc2)c(O)c1 | 13.2 µM

Compound | AC50
COc1ccc2nc(NC(=O)C3CCCN3S(=O)(=O)c3ccc(C)cc3)sc2c1 (stereo not given) | > 30 µM (inactive)
COc1cc(-c2nnc(SCc3c(F)cccc3Cl)o2)cc(OC)c1OC | > 30 µM (inactive)
CC(=O)Nc1cccc(-c2csc(Nc3ccccn3)n2)c1 | > 30 µM (inactive)
CCCCC(=O)Nc1nn(CCC)c2nc3ccccc3cc12 | > 30 µM (inactive)
Brc1ccc(C2=Nn3c(nnc3-c3cccnc3)SC2)s1 | > 30 µM (inactive)
COc1ccc(OCc2nc(N)nc(Nc3cccc(C)c3C)n2)cc1 | > 30 µM (inactive)
CCOc1ccc2ncc(S(=O)(=O)c3ccccc3)c(N3CCN(c4ccc(OC)cc4)CC3)c2c1 | > 30 µM (inactive)
CCCNC(=O)OCCC12CC3CC(CC(C3)C1)C2 | > 30 µM (inactive)
O=S(=O)(c1cccs1)N1CCN(c2ccnc3cc(Cl)ccc23)CC1 | > 30 µM (inactive)
COc1ccc(OC)c(/C=C2\S/C(=N/NC(=O)c3ccc4ccccc4c3)NC2=O)c1 | > 30 µM (inactive)
Fc1cccc(/C=N/Nc2nccnc2Cl)c1 | > 30 µM (inactive)
CCOC(=O)c1[nH]c2c(c1-c1ccccc1)C(=O)CC(c1ccccc1)C2 (stereo not given) | > 30 µM (inactive)
Nc1ncnc2c1ncn2[C@H]1C[C@H](O)[C@@H](CO)O1 | > 30 µM (inactive)
Cc1ccc(N(CC(O)CN2CCCCC2)S(=O)(=O)c2ccccc2)cc1 (stereo not given) | > 30 µM (inactive)
O=c1[nH]c(=O)n(C2CCCCCC2)c(O)c1C=NC1CCN(Cc2ccccc2)CC1 | 9.67 µM
CC(=O)Nc1c(C)ccc2nsnc12 | > 30 µM (inactive)
COc1ccc(S(=O)(=O)N[C@H](C(=O)O)C(C)C)cc1 | > 30 µM (inactive)
CC(C)(C)N1C(=O)c2ccc(C(=O)O)cc2C1=O | > 30 µM (inactive)
O=C(c1ccc2c3n(nc2c1)-c1ccccc1CO3)N1CCOCC1 | 18.8 µM
O=C(CSCc1ccc([N+](=O)[O-])cc1)NN=C1CCCCCC1 | > 30 µM (inactive)
CCN(CC)c1ccc2ccc(=O)oc2c1 | > 30 µM (inactive)
Cc1c(C)n(CCCN(C)C)c2ncnc(NC3CCCCC3)c12 | > 30 µM (inactive)
Cc1sc2ncnc(NCCCN3CCCC3=O)c2c1C | 21.5 µM
Cc1nnc(N/N=C/c2ccc(-c3ccc(Br)cc3)o2)n1N | 15.4 µM
